Calls of active or inactive are those of the source.
How the values were obtained:
[1] = target: T1, COUP transcription factor 2 (Homo sapiens, UniProt P24468); assay: Luminescence-based cell-based high throughput dose response assay to identify inhibitors of COUP-TFII (NR2F2).; format: functional;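 note: HEK293 cells transiently cotransfected with COUP-TFII expression vector and reporter; luciferase reporter luminescence driven by COUP-TFII from the pX2-168 reporter plasmid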
T1 sequence (P24468 whole entry): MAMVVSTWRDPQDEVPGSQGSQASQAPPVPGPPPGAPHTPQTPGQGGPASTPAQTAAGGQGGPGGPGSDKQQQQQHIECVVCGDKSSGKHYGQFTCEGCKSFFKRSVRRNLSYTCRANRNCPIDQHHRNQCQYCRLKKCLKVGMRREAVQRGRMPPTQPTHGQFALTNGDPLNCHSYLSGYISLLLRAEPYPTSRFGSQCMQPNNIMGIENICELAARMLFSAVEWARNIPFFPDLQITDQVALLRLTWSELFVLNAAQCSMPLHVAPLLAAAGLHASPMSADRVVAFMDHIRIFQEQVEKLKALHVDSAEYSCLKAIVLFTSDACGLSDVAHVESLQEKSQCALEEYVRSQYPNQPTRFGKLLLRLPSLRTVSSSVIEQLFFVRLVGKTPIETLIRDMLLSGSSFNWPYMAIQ

[2] = target: T2, Histone-lysine N-methyltransferase NSD2 (Homo sapiens, UniProt O96028); format: biochemical
T2 sequence (O96028 whole entry): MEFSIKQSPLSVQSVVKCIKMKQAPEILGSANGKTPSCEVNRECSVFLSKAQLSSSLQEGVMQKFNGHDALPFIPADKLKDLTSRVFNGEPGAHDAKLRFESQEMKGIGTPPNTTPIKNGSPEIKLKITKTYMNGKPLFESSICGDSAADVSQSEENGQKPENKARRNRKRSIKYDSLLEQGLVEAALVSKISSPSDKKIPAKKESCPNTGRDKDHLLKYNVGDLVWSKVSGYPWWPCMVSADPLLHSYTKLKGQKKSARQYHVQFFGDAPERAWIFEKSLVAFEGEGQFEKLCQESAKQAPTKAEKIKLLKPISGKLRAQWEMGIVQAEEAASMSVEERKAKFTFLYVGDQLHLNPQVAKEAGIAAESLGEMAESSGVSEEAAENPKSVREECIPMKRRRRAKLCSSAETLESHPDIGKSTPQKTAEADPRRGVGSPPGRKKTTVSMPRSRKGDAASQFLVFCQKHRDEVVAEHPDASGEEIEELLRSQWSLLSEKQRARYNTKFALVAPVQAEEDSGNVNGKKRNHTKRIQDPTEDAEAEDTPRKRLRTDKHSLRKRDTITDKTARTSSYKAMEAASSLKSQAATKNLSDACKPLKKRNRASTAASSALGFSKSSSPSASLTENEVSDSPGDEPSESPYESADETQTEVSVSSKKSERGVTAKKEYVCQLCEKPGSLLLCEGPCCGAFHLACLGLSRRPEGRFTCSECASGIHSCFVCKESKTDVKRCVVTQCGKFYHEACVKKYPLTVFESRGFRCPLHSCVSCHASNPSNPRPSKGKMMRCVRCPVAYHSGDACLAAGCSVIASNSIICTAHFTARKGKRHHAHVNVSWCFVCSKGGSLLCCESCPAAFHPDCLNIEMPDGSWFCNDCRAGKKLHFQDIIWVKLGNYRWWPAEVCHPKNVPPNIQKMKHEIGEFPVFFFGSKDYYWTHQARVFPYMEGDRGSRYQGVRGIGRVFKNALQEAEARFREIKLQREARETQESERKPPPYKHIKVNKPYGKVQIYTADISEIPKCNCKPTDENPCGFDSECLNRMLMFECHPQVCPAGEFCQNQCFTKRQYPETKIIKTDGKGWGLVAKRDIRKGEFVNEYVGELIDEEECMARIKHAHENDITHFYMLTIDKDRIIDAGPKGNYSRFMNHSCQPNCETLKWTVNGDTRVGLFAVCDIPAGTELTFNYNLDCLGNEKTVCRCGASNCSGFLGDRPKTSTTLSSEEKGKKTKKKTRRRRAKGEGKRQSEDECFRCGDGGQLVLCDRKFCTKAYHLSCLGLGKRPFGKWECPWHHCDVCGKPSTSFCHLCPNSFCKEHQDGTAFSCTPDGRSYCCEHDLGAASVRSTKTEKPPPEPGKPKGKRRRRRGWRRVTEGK

[3] = target: T3, Tyrosyl-DNA phosphodiesterase 2 (Homo sapiens, UniProt O95551); assay: human TDP2 enzyme inhibitors, dose response, biochemical, epi absorbance, IC50 (AID 743297)
T3 sequence (O95551 whole entry): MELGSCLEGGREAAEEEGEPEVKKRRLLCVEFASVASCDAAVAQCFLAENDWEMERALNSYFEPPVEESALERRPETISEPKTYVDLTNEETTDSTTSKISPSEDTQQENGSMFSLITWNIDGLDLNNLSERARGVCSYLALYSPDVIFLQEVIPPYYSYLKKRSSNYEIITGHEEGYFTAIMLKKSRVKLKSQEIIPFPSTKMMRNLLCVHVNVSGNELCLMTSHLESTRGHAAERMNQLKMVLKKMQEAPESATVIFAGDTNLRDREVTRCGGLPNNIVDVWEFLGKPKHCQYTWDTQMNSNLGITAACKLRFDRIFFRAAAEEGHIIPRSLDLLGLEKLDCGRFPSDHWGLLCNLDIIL

Protein RecA = target: T4, Protein RecA (Mycobacterium tuberculosis, UniProt P9WHJ3); assay: Fluorescence Cell-Free Homogeneous Dose Retest to Identify Inhibitors of RecA-Intein Splicing Activity. [Related pubchem assays (depositor defined):AID2097, AID2223, AID489010, AID492950]; format: functional
T4 sequence (P9WHJ3 whole entry): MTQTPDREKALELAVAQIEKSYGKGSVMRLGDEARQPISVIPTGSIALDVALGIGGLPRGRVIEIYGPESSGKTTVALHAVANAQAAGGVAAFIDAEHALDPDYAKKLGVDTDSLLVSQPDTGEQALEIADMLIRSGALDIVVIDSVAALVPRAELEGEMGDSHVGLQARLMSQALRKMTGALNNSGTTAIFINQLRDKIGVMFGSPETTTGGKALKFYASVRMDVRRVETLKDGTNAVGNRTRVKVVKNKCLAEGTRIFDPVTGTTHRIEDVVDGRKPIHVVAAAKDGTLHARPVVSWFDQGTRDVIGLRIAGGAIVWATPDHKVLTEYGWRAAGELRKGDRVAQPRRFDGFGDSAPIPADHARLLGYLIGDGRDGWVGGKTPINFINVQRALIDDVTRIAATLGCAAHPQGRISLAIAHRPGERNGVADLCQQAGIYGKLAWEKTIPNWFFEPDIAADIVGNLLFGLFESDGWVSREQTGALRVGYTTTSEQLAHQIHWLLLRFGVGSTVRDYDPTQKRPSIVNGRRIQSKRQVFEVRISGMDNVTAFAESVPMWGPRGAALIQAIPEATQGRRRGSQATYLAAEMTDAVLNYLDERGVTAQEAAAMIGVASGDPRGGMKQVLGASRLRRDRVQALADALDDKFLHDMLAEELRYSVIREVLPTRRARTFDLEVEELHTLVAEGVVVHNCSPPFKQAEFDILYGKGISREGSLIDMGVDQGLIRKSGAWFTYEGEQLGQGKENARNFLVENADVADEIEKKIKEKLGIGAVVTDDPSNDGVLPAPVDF

[4] = target: T5, RNA-binding protein pos-1 (Caenorhabditis elegans, UniProt G5EF15); assay: inhibitors of POS-1/mex-3 RNA binding, dose response, biochemical, fluorescence polarization (AID 1964);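 note: purified POS-1 fused to maltose binding protein made in E. coli; potency of compounds blocking POS-1 binding to fluorescent RNA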
T5 sequence (G5EF15 whole entry): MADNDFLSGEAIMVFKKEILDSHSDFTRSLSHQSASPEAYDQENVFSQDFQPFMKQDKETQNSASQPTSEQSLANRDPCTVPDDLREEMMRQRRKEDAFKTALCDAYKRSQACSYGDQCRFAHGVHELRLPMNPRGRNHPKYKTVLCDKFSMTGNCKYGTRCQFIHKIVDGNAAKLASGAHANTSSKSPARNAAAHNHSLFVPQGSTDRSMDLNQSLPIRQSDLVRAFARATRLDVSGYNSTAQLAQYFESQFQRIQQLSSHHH

[5] = target: T6, Zinc finger protein mex-5 (Caenorhabditis elegans, UniProt Q9XUB2); assay: MEX-5/TCR-2 RNA interaction inhibitors, dose response, biochemical, C. elegans, fluorescence polarization (AID 1960)
T6 sequence (Q9XUB2 whole entry): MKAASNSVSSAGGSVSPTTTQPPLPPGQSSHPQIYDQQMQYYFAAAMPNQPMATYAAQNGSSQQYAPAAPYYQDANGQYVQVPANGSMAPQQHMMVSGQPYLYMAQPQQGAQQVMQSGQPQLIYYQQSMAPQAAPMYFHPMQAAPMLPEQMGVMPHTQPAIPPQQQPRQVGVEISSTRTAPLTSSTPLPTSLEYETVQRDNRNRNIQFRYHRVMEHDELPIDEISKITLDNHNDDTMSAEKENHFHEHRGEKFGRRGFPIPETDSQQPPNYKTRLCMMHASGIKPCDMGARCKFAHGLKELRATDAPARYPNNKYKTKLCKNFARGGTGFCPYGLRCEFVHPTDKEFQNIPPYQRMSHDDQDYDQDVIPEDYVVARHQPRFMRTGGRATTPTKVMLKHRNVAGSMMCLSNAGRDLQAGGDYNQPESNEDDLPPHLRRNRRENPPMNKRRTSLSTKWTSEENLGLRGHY

Nonstructural protein 1 = Nonstructural protein 1 (Influenza A virus, UniProt Q194T2); format: functional, Influenza A virus (A/California/07/2009(H1N1))
cells = format: functional, cell-based; conditions: HEK-CNG
[6] = inhibitors of firefly luciferase expression or activity, dose response, H4 neuroglioma cells, luminescence (AID 1990); format: functional, cell-based
[7] = NIH-3T3 fibroblast cytotoxicity, dose response, cytotoxicity control, cell-based, fluorescence, Alamar Blue, secondary assay (AID 2327); format: functional;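 note: NIH-3T3 mouse fibroblasts cultured with fluconazole at 8 µg/mL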
[8] = Luminescence Cell-Based Dose Response HTS to Identify Inhibitors of 5'UTR Stem-Loop Driven Prion Protein mRNA Translation in H4 Neuroglioblastoma Cells. [Related pubchem assays: 1827 (Project Summary), 1813 (Primary HTS)]; format: functional
Galanin receptor type 3 = target: T7, Galanin receptor type 3 (Homo sapiens, UniProt O60755); assay: Fluorescence-based cell-based primary high throughput dose response assay to identify antagonists of the Galanin Receptor 3 (GalR3).; format: functional
T7 sequence (O60755 whole entry): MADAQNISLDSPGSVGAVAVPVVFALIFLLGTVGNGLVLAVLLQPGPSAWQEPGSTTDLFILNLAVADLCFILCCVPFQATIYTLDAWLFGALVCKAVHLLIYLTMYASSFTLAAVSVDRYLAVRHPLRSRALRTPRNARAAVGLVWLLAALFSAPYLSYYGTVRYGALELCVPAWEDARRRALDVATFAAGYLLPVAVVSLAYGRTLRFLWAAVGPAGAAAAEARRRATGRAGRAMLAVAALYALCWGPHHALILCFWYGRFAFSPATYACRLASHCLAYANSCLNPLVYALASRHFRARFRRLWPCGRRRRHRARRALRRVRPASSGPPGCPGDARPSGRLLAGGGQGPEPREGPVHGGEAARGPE

[9] = C. albicans growth with fluconazole, confirmation, fluorescence, retest (AID 2467); format: functional, cell-based
[10] = inhibitors of SNCA 5'UTR-driven reporter translation, confirmation, H4 neuroglioma cells, luminescence (AID 1988); format: functional, cell-based
[11] = control 3'UTR Renilla luciferase suppression, dose response, counter-screen for Shn3 inhibitor project, cell-based, Clone20-Shn3RL, cherry-picked (AID 624133); format: functional
[12] = Shn3 3'UTR reporter inhibitors, dose response, cell-based, Clone20 osteoblasts, firefly luciferase, cherry-picked (AID 624132); format: functional;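 note: firefly luciferase luminescence from reporter carrying the Shn3 3'UTR in osteoblasts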
[13] = HepG2 cell cytotoxicity, dose response, cytotoxicity control for Shn3 inhibitor project, CellTiter-Glo, cherry-picked (AID 624134); format: functional, cell-based
[14] = target: Potassium channel subfamily K member 9 (Homo sapiens, UniProt Q9NPC2); assay: TASK3 (KCNK9) channel inhibitors, thallium flux, SAR follow-up, selectivity assay for TASK1 inhibitor project, cell-based, FluxOR thallium flux, concentration-response (AID 652211); format: functional;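 note: potency is for inhibitors of the channel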
[15] = A549 cell cytotoxicity, dose response, cytotoxicity control, plate reader, cherry-pick, antagonist series (AID 743412); format: functional, cell-based
[16] = MC4R antagonists, dose response, counter-screen for LGR2 antagonist project, cell-based, plate reader, cherry pick (AID 743444); format: functional;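 note: transfected HEK 293 cells stimulated with alpha-MSH peptide; potency of inhibitors of the alpha-MSH evoked signal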
[17] = HEK293 cell cytotoxicity, dose response, cytotoxicity control, plate reader, cherry-picked samples (AID 743446); format: functional, cell-based
[18] = HepG2 cell cytotoxicity, dose response, cytotoxicity control, plate reader, cherry-pick, antagonist series (AID 743416); format: functional, cell-based
[19] = LGR2 antagonists, dose response, cell-based, HEK293, CRE-luciferase reporter, cherry pick, set 2 (AID 743343); format: functional;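 note: transfected cells were stimulated with diluted bursicon conditioned medium after compound addition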

Potassium channel subfamily K member 9, sequence (Q9NPC2 whole entry): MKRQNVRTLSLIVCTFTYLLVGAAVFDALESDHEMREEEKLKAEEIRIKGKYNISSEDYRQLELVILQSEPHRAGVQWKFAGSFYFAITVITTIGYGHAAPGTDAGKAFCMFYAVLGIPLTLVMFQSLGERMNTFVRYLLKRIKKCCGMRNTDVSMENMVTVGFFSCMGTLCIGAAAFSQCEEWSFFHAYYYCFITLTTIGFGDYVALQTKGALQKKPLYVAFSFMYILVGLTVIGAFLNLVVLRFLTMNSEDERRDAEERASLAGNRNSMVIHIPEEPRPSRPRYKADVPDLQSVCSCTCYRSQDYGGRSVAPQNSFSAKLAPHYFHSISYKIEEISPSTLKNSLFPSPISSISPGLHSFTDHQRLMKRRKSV
Nonstructural protein 1, sequence (Q194T2 whole entry): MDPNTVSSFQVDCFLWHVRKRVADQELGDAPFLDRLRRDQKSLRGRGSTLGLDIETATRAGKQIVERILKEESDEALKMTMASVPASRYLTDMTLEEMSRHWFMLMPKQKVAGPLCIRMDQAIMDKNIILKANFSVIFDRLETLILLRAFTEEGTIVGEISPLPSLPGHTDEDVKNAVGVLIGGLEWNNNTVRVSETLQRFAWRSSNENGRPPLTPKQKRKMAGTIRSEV

Cc1c(C)n(Cc2ccccc2)c2ncnc(Cl)c12
IC50 [1]: 10.7 µM (inactive)

CCOc1ccccc1NC(=O)CSc1nc(O)c2c(C(F)(F)F)cc(-c3cccs3)nc2n1
AC50 [2]: > 20 µM (inactive)

S=C(Nc1ccc2nsnc2c1)N1CCCCCC1
IC50 [3]: > 128 µM (inactive)
EC50 (Protein RecA): 46.7 µM (active)

CCCC1Nc2ccc(C(=O)O)cc2C2C=CCC12 (stereo not drawn)
AC50 [2]: 16.8 µM (active)
EC50 [4]: 23.8 µM (active)
EC50 [5]: 14.5 µM (active)

CC[n+]1c(/C=C/C=C/c2ccc(N(C)C)cc2)sc2ccccc21.[O-][Cl+3]([O-])([O-])[O-]
IC50 (Nonstructural protein 1): 5.05 µM (active)
AC50 [2]: 7.84 µM (active)
EC50 (cells): > 29.9 µM (inactive)
EC50 [6]: 43.6 µM (active)
EC50 [7]: 82.9 µM (active)
EC50 [8]: 11.2 µM (active)
IC50 (Galanin receptor type 3): > 29.9 µM (inactive)
EC50 [9]: < 0.03 µM (active)
EC50 [10]: 0.666 µM (active)

CC(=O)c1c(C)[nH]c(C(=O)COc2cc(C)ccc2C(C)C)c1C
EC50 (cells): > 29.9 µM (inactive)
AC50 [11]: 8.41 µM (active)
AC50 [12]: 1.25 µM (active)
AC50 [13]: 3.12 µM (active)
IC50 (Galanin receptor type 3): 1.24 µM (active)
IC50 [1]: 5.74 µM (active)

Cc1cccc(C(=O)Nc2cccc(NC(=O)c3ccccc3C)c2)c1
IC50 [14]: 0.94 µM (active)

O=C(Nc1cccc(NC(=O)c2ccccc2Cl)c1)c1ccccc1
IC50 [14]: 33.4 µM (active)

C[C@@H]1CN([C@H](C)CO)C(=O)Cc2cc(NC(=O)Nc3ccc(F)cc3)ccc2O[C@@H]1CN(C)CC1CCCCC1
AC50 [15]: 15 µM (active)
AC50 [16]: 56.6 µM (active)
AC50 [17]: 16.2 µM (active)
AC50 [18]: 14.6 µM (active)

N#C[C@H]1[C@H](c2ccc(C#Cc3ccccc3F)cc2)[C@H](CO)N1C(=O)C1CCCC1
AC50 [15]: 23.6 µM (active)
AC50 [16]: 4.57 µM (active)
AC50 [17]: 8.77 µM (active)
AC50 [18]: 34.5 µM (active)
AC50 [19]: 5.64 µM (active)
